For 25 compounds, T/C results are on record in PubChem BioAssay AID330 (DTP/NCI, 2004).

Several values for one entry are separate records, joined by “and”; a condition that tells them apart may be missing. Identical values can stand only once. Inconclusive results and toxic doses are left out. Peptide text beside a SMILES is read from it.

The test system of the assay is P388 leukemia ip, CD2F1 mice, survival T/C. Kind of assay: NCI In Vivo Anticancer Drug Screen. Data for tumor model P388 Leukemia (intraperitoneal) in CD2F1 (CDF1) mice. As to conditions: endpoint: median survival time, higher = longer survival. A digest of the protocol:
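Mice carrying the transplanted tumor received test compound or vehicle. Survival was recorded in each group, and the value is the treated-group measurement divided by that of the vehicle-treated control group.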

The mark [1] stands for this setting: dose: 12.5 mg/kg/injection, schedule: Q01DX005 (ip), vehicle: Klucel (hydroxypropylcellulose) (HPC).
Setting [2] is: dose: 25.0 mg/kg/injection, schedule: Q01DX005 (ip), vehicle: Klucel (hydroxypropylcellulose) (HPC).
[3] abbreviates: dose: 50.0 mg/kg/injection, schedule: Q01DX005 (ip), vehicle: Klucel (hydroxypropylcellulose) (HPC).
Setting [4] is: dose: 100.0 mg/kg/injection, schedule: Q01DX005 (ip), vehicle: Klucel (hydroxypropylcellulose) (HPC).
Setting [5] is: dose: 60.0 mg/kg/injection, schedule: Q01DX005 (ip), vehicle: saline with Tween-80.
[6] abbreviates: dose: 120.0 mg/kg/injection, schedule: Q01DX005 (ip), vehicle: saline with Tween-80.
[7] abbreviates: dose: 240.0 mg/kg/injection, schedule: Q01DX005 (ip), vehicle: saline with Tween-80.
[8] abbreviates: dose: 50.0 mg/kg/injection, schedule: Q01DX009 (ip), vehicle: Klucel (hydroxypropylcellulose) (HPC).
Where [9] appears, read: dose: 100.0 mg/kg/injection, schedule: Q01DX009 (ip), vehicle: Klucel (hydroxypropylcellulose) (HPC).
The mark [10] stands for this setting: dose: 100.0 mg/kg/injection, schedule: Q01DX005 (ip), vehicle: Klucel + Tween-80.
Setting [11] is: dose: 200.0 mg/kg/injection, schedule: Q01DX005 (ip), vehicle: Klucel + Tween-80.
Setting [12] is: dose: 50.0 mg/kg/injection, schedule: Q01DX005 (ip), vehicle: saline with Tween-80.
Where [13] appears, read: dose: 100.0 mg/kg/injection, schedule: Q01DX005 (ip), vehicle: saline with Tween-80.
Where [14] appears, read: dose: 200.0 mg/kg/injection, schedule: Q01DX005 (ip), vehicle: saline with Tween-80.
Where [15] appears, read: dose: 100.0 mg/kg/injection, schedule: Q04DX002 (ip), vehicle: saline with Tween-80.
Setting [16] is: dose: 200.0 mg/kg/injection, schedule: Q04DX002 (ip), vehicle: saline with Tween-80.
Where [17] appears, read: dose: 200.0 mg/kg/injection, schedule: Q01DX009 (ip), vehicle: Klucel (hydroxypropylcellulose) (HPC).

As to `C[C@H]1CN[C@@H]2[C@@H](C)[C@H]3[C@@H](C[C@H]4[C@@H]5CC[C@H]6C[C@@H](N)CC[C@]6(C)[C@H]5CC[C@]34C)O[C@@]2(O)C1`, the T/C by setting is: (dose: 3.12 mg/kg/injection, schedule: Q01DX009 (ip), vehicle: saline) 103 % of control; (dose: 6.25 mg/kg/injection, schedule: Q01DX009 (ip), vehicle: saline) 94 % of control; (dose: 12.5 mg/kg/injection, schedule: Q01DX009 (ip), vehicle: saline) 100 % of control; (dose: 25.0 mg/kg/injection, schedule: Q01DX009 (ip), vehicle: saline) 98 % of control.

For `COc1ccc(-c2cc(=O)c3cccc(CC(=O)O)c3o2)cc1`, the T/C reads like this: under setting [1], 105 % of control; under setting [2], 104 % of control; under setting [3], 114 % of control and 98 % of control; under setting [4], 170 % of control.

Take `COc1cc(C2c3cc4c(cc3OC(C)(O)C2C(C)=O)OCO4)cc(OC)c1O` (stereo not drawn): the T/C was 95 % of control under setting [5], 97 % of control under setting [6] and 90 % of control under setting [7].

Turning to `COc1ccc(/C=C2/OC(=O)C(C(C)=O)=C2O)cc1`, the T/C is 115 % of control under setting [8] and 100 % of control under setting [9].

On to `CN1CCC(/C(=N/O)c2ccccc2)(c2ccccc2)CC1`, for which the T/C by setting is: (dose: 50.0 mg/kg/injection, schedule: Q01DX005 (ip), vehicle: Klucel + Tween-80) 98 % of control; under setting [10], 91 % of control; under setting [11], 91 % of control.

Regarding `CC1(C)NC(=O)[C@]2(C[C@@H](O)C=C2CO)O1`, the T/C is, setting by setting: (dose: 25.0 mg/kg/injection, schedule: Q01DX005 (ip), vehicle: saline) 94 % of control; (dose: 50.0 mg/kg/injection, schedule: Q01DX005 (ip), vehicle: saline) 99 % of control; (dose: 100.0 mg/kg/injection, schedule: Q01DX005 (ip), vehicle: saline) 93 % of control.

Consider `CCOC(=O)N1C=CC2(C=C1)CCCC2`, for which the T/C reads like this: (dose: 50.0 mg/kg/injection, schedule: Q01DX001 (ip), vehicle: Klucel (hydroxypropylcellulose) (HPC)) 108 % of control; (dose: 100.0 mg/kg/injection, schedule: Q01DX001 (ip), vehicle: Klucel (hydroxypropylcellulose) (HPC)) 102 % of control; (dose: 200.0 mg/kg/injection, schedule: Q01DX001 (ip), vehicle: Klucel (hydroxypropylcellulose) (HPC)) 102 % of control.

Regarding `Nc1cccc(C(=O)O)c1O`, the T/C by setting is: (dose: 50.0 mg/kg/injection, schedule: Q01DX009 (ip), vehicle: saline) 100 % of control; (dose: 100.0 mg/kg/injection, schedule: Q01DX009 (ip), vehicle: saline) 106 % of control; (dose: 200.0 mg/kg/injection, schedule: Q01DX009 (ip), vehicle: saline) 104 % of control.

In the case of `S=C(SSC(=S)N(Cc1ccccc1)Cc1ccccc1)N(Cc1ccccc1)Cc1ccccc1`, the T/C runs as follows: under setting [5], 96 % of control; under setting [6], 103 % of control; under setting [7], 96 % of control.

Take `COC(=O)C1C2C=CC(C1C(=O)OC)C1C3C(=O)N(N)C(=O)C3C21` (stereo not drawn): the T/C is, setting by setting: under setting [12], 100 % of control; under setting [13], 96 % of control; under setting [14], 91 % of control.

With `COc1ccc(/C=C2/C/C(=C/c3ccc(OC)cc3)C2=O)cc1`, the T/C was 95 % of control (dose: 100.0 mg/kg/injection, schedule: Q04DX003 (ip), vehicle: Klucel (hydroxypropylcellulose) (HPC)); 103 % of control (dose: 200.0 mg/kg/injection, schedule: Q04DX003 (ip), vehicle: Klucel (hydroxypropylcellulose) (HPC)); 97 % of control (dose: 400.0 mg/kg/injection, schedule: Q04DX003 (ip), vehicle: Klucel (hydroxypropylcellulose) (HPC)).

Regarding `Cc1cnc2ccc(O)cc2c1CO`, the T/C is 92 % of control under setting [15]; 94 % of control under setting [16]; 93 % of control (dose: 400.0 mg/kg/injection, schedule: Q04DX002 (ip), vehicle: saline with Tween-80).

As for `COC1=CC(=O)C(=O)C(C(C)(C)C)=C1`, the T/C (dose: 15.0 mg/kg/injection, schedule: Q01DX005 (ip), vehicle: Klucel (hydroxypropylcellulose) (HPC)) was 104 % of control and the T/C (dose: 30.0 mg/kg/injection, schedule: Q01DX005 (ip), vehicle: Klucel (hydroxypropylcellulose) (HPC)) is 86 % of control.

As for `Cc1cc2nc(CC(O)(C(F)(F)F)C(F)(F)F)oc2cc1C`, the T/C (dose: 100.0 mg/kg/injection, schedule: Q04DX003 (ip), vehicle: saline with Tween-80) was 95 % of control; the T/C (dose: 200.0 mg/kg/injection, schedule: Q04DX003 (ip), vehicle: saline with Tween-80) is 95 % of control; the T/C (dose: 400.0 mg/kg/injection, schedule: Q04DX003 (ip), vehicle: saline with Tween-80) is 100 % of control.

`CC(C)CC1N=C(NN=C(CCl)CCl)SP1(=O)NCCCCCCNP1(=O)SC(NN=C(CCl)CCl)=NC1CC(C)C` (stereo not drawn): the T/C is, setting by setting: (dose: 60.0 mg/kg/injection, schedule: Q01DX005 (ip), vehicle: Klucel (hydroxypropylcellulose) (HPC)) 100 % of control; (dose: 120.0 mg/kg/injection, schedule: Q01DX005 (ip), vehicle: Klucel (hydroxypropylcellulose) (HPC)) 103 % of control; (dose: 240.0 mg/kg/injection, schedule: Q01DX005 (ip), vehicle: Klucel (hydroxypropylcellulose) (HPC)) 102 % of control.

In the case of `CC(C)C(NC(=O)C(N)CCC(=O)O)C(=O)O` (stereo not drawn) (H-Glu-Val-OH; configuration not given here), the T/C under setting [12] is 93 % of control, the T/C under setting [13] is 100 % of control and the T/C under setting [14] was 93 % of control.

For `COC(=O)c1cc(-c2ccc(OC)cc2)[nH]c(=O)c1C#N`, the T/C is, setting by setting: under setting [5], 100 % of control; under setting [6], 91 % of control.

For the compound `CC(C)(C)C1(C#N)C(=O)N(c2ccc(Cl)cc2)C12c1ccccc1-c1ccccc12` (stereo not drawn), the T/C reads like this: under setting [8], 99 % of control; under setting [9], 118 % of control; under setting [17], 105 % of control.

Take `O=C(Nc1ncnc2nc[nH]c12)c1ccccc1`: the T/C was 107 % of control under setting [8]; 97 % of control under setting [9]; 101 % of control under setting [17]; 112 % of control (dose: 400.0 mg/kg/injection, schedule: Q01DX009 (ip), vehicle: Klucel (hydroxypropylcellulose) (HPC)).

As to `Cc1cc(N/N=C/c2ccccn2)nc2ccccc12`, the T/C was 101 % of control under setting [1] and 112 % of control under setting [2].

`CCCCc1ccc(-c2nn[nH]n2)nc1`: the T/C reads like this: (dose: 25.0 mg/kg/injection, schedule: Q04DX002 (ip), vehicle: saline with Tween-80) 101 % of control; (dose: 50.0 mg/kg/injection, schedule: Q04DX002 (ip), vehicle: saline with Tween-80) 100 % of control and 102 % of control; under setting [15], 100 % of control and 102 % of control and 104 % of control; under setting [16], 105 % of control and 123 % of control and 95 % of control.

Take `CC(=O)O[C@@H]1C[C@@]2(C)C(CC(=O)[C@@H](C)[C@@H]2CC(=O)c2ccoc2)[C@@H](CO)[C@@H]1O` (stereo partly drawn): the T/C is, setting by setting: under setting [1], 103 % of control; under setting [2], 100 % of control; under setting [3], 109 % of control; under setting [4], 106 % of control; under setting [10], 107 % of control; under setting [11], 107 % of control. Moreover, the T/C (dose: 400.0 mg/kg/injection, schedule: Q01DX005 (ip), vehicle: Klucel + Tween-80) is 101 % of control.

As to `OC1(c2ccccc2)CSC2=Nc3ccccc3C3CCN1N23` (stereo not drawn), the T/C is 108 % of control and 87 % of control (dose: 12.5 mg/kg/injection, schedule: Q01DX009 (ip), vehicle: saline with Tween-80); 122 % of control and 95 % of control (dose: 100.0 mg/kg/injection, schedule: Q01DX009 (ip), vehicle: saline with Tween-80); 99 % of control (dose: 200.0 mg/kg/injection, schedule: Q01DX009 (ip), vehicle: saline with Tween-80).

For `O=C1C2C3C=CC(O3)C2C(=O)N1CCN1CCCCC1` (stereo not drawn), the T/C by setting is: (dose: 50.0 mg/kg/injection, schedule: Q01DX005 (ip), vehicle: other) 97 % of control; (dose: 100.0 mg/kg/injection, schedule: Q01DX005 (ip), vehicle: other) 91 % of control.

Turning to `O=C(O)c1ccc(/C=C2\COc3ccccc3C2=O)cc1`, the T/C is 103 % of control under setting [5], 112 % of control under setting [6] and 112 % of control under setting [7].
